The text below walks through data of patent publication US6191161A, “Prolylendopeptidase inhibitors” (Chinoin Gyogyszer es Vegyeszeti, priority 1995, dated 2001).

This assay addresses T1, prolyl endopeptidase (PEP), rat brain extract (Rattus norvegicus, UniProt O70196).
T1 construct: the supernatant, containing the enzyme, was collected; from tissue; host or cells: rat (Sprague-Dawley, male) whole brain without cerebellum, 40000 g supernatant
T1 sequence (O70196 1-710): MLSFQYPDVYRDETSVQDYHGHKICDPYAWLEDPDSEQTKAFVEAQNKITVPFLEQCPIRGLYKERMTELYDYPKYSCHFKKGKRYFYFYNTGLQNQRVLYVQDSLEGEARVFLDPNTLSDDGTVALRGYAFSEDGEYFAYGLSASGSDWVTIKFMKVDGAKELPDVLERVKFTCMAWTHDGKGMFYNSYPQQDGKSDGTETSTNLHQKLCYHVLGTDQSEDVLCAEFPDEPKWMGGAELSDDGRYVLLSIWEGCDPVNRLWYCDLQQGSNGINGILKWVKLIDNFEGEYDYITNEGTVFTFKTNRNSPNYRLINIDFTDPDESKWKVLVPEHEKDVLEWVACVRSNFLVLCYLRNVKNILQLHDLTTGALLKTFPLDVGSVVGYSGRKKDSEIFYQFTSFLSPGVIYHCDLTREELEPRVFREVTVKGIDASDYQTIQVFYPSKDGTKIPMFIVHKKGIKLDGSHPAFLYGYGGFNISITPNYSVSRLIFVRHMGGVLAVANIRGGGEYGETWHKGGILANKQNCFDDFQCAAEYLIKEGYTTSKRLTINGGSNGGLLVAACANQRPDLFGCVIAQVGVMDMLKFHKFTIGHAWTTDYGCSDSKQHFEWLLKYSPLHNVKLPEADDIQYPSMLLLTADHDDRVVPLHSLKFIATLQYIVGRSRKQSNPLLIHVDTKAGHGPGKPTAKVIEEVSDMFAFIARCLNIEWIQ
Kind of assay: PEP activity measurement on rat brain extract. The assay is classed as biochemical, rat (Sprague-Dawley). The following applies: Z-glycyl-prolyl-7-amino-4-methyl-coumarin 62.5 μM, room temperature, 15 min. The procedure:
PEP Activity Measurement on Rat Brain Extract:
After removal of the cerebellum whole brain of male (Sprague-Dawley, 180-200 g) rats was homogenized in a double volume of 0.1 M Tris-HCl, 1 mM EDTA buffer, pH=7.5 (PEP buffer). The homogenate was centrifuged for 30 min. at 4° C. at 40000 g and the supernatant, containing the enzyme, was collected. The pellet was resuspended in the same volume of buffer as in the first case and centrifuged again under the same conditions. The two supernatants were pooled and stored in 1 ml aliquots at -70° C. (for at least 3 months). The supernatant was thawn just before activity measurement and diluted in a 1:15 ratio with PEP buffer. […] The inhibitory effect of compounds was tested under the same conditions in the presence of 100 to 0.001 nM compound.
The IC50 is the point on the concentration scale where inhibition reaches its midpoint. A higher IC50 goes with a need for much substance. As to `O=C([C@@H]1CSCN1C(=O)CCN1C(=O)c2cccc3cccc(c23)C1=O)N1CCSC1` [Example 123], the IC50 worked out at 0.278 nM. That is a sub-nanomolar value.
In the case of `Cc1ccc2c(c1)C(=O)N(CCC(=O)N1CSC[C@H]1C(=O)N1CCSC1)C2=O` [Example 31] it was 0.36 nM; in that of `O=C([C@@H]1C[S+]([O-])CN1C(=O)CCCN1C(=O)Nc2ccc([N+](=O)[O-])cc2S1(=O)=O)N1CCCC1` (stereo partly drawn) [Example 171], 0.451 nM.
